Assay results as given in PMC3242598, “Phase I study of BIBF 1120 with docetaxel and prednisone in metastatic chemo-naive hormone-refractory prostate cancer patients” (British Journal of Cancer, 2011).

System: patients with metastatic, chemo-naive, hormone-refractory prostate cancer (HRPC)
Experiment: Phase I safety analysis: adverse events graded by CTCAE version 3.0
Format: in vivo, human
Details: for Dyspepsia: patients with drug-related AE / Dysphonia: patients with drug-related AE / Elevated ALT: patients with drug-related AE / Elevated AST: patients with drug-related AE / Elevated GGT: patients with drug-related AE / Elevated alkaline phosphatase: patients with drug-related AE / Epistasis: patients with drug-related AE / Headache: patients with drug-related AE / Hot flush: patients with drug-related AE / Mucosal inflammation: patients with drug-related AE / Muscle spasm: patients with drug-related AE / Nausea: patients with drug-related AE / Neuropathy: patients with drug-related AE / Pyrexia: patients with drug-related AE / Rash: patients with drug-related AE / Upper abdominal pain: patients with drug-related AE / Vomiting: patients with drug-related AE / Weight decrease: patients with drug-related AE / Ageusia: patients with drug-related AE / Alopecia: patients with drug-related AE / Anorexia: patients with drug-related AE / Asthenia: patients with drug-related AE / Constipation: patients with drug-related AE / Diarrhoea: patients with drug-related AE / Dysgeusia: patients with drug-related AE: all courses
Description: On days 2–21 (21-day cycle), patients took an oral dose of BIBF 1120 twice daily. Patients were instructed to swallow BIBF 1120 with water at the same time every day to ensure a dose interval of ∼12 h. On day 2 of treatment cycles (TCs) 1 and 2, patients only took the morning dose of BIBF 1120, omitting the evening dose to allow PK evaluation. All patients were premedicated with oral corticosteroids (dexamethasone 8 mg per os or methylprednisolone 32 mg per os, at 12 h and 1 h before docetaxel infusion) and subsequently took 5 mg prednisone oral BID throughout the trial. On day 1 of each TC, patients received an IV infusion of 75 mg m^−2 docetaxel administered over 1 h.
All patients who received at least one dose of BIBF 1120 or docetaxel were assessed during the safety analysis. Intensity of AEs was graded according to Common Terminology Criteria for Adverse Events (CTCAE) version 3.0. Objective response was defined as a PSA decline ⩾50% from the baseline value over two consecutive courses and/or tumour response according to RECIST criteria ([Therasse et al, 2000]).

[1] = 200 mg BID (n=3) + docetaxel/prednisone, all grades
[2] = 250 mg BID (n=12) + docetaxel/prednisone, Gr 3/4
[3] = 250 mg BID (n=12) + docetaxel/prednisone, all grades
[4] = Total, all dose levels (n=21) + docetaxel/prednisone, Gr 3/4
[5] = Total, all dose levels (n=21) + docetaxel/prednisone, all grades
[6] = during TC 1, all dose levels 100–250 mg BID + docetaxel/prednisone
[7] = during TC 1, all dose levels + docetaxel/prednisone

COC(=O)c1ccc2c(c1)NC(=O)/C2=C(\Nc1ccc(N(C)C(=O)CN2CCN(C)CC2)cc1)c1ccccc1 [BIBF 1120]
Dyspepsia: patients with drug-related AE [1]: 0
Dysphonia: patients with drug-related AE [1]: 2
Elevated ALT: patients with drug-related AE [1]: 0
Elevated AST: patients with drug-related AE [1]: 0
Elevated GGT: patients with drug-related AE [1]: 0
Elevated alkaline phosphatase: patients with drug-related AE [1]: 0
Epistasis: patients with drug-related AE [1]: 1
Headache: patients with drug-related AE [1]: 0
Hot flush: patients with drug-related AE [1]: 1
Mucosal inflammation: patients with drug-related AE [1]: 0
Muscle spasm: patients with drug-related AE [1]: 0
Nausea: patients with drug-related AE [1]: 2
Neuropathy: patients with drug-related AE [1]: 0
Pyrexia: patients with drug-related AE [1]: 0
Rash: patients with drug-related AE [1]: 0
Upper abdominal pain: patients with drug-related AE [1]: 0
Vomiting: patients with drug-related AE [1]: 2
Weight decrease: patients with drug-related AE [1]: 0
Patients with grade 3 diarrhoea (200 mg BID + docetaxel/prednisone, TC 1): One
Ageusia: patients with drug-related AE [2]: 0
Alopecia: patients with drug-related AE [2]: 0
Anorexia: patients with drug-related AE [2]: 0
Asthenia: patients with drug-related AE [2]: 0
Constipation: patients with drug-related AE [2]: 0
Diarrhoea: patients with drug-related AE [2]: 0
Dysgeusia: patients with drug-related AE [2]: 0
Dyspepsia: patients with drug-related AE [2]: 0
Dysphonia: patients with drug-related AE [2]: 0
Elevated ALT: patients with drug-related AE [2]: 2
Elevated AST: patients with drug-related AE [2]: 2
Elevated GGT: patients with drug-related AE [2]: 2
Elevated alkaline phosphatase: patients with drug-related AE [2]: 0
Epistasis: patients with drug-related AE [2]: 0
Headache: patients with drug-related AE [2]: 0
Hot flush: patients with drug-related AE [2]: 0
Mucosal inflammation: patients with drug-related AE [2]: 0
Muscle spasm: patients with drug-related AE [2]: 0
Nausea: patients with drug-related AE [2]: 0
Neuropathy: patients with drug-related AE [2]: 0
Pyrexia: patients with drug-related AE [2]: 0
Rash: patients with drug-related AE [2]: 0
Upper abdominal pain: patients with drug-related AE [2]: 0
Vomiting: patients with drug-related AE [2]: 0
Weight decrease: patients with drug-related AE [2]: 0
Ageusia: patients with drug-related AE [3]: 1
Alopecia: patients with drug-related AE [3]: 4
Anorexia: patients with drug-related AE [3]: 3
Asthenia: patients with drug-related AE [3]: 10
Constipation: patients with drug-related AE [3]: 2
Diarrhoea: patients with drug-related AE [3]: 8
Dysgeusia: patients with drug-related AE [3]: 2
Dyspepsia: patients with drug-related AE [3]: 1
Dysphonia: patients with drug-related AE [3]: 1
Elevated ALT: patients with drug-related AE [3]: 4
Elevated AST: patients with drug-related AE [3]: 3
Elevated GGT: patients with drug-related AE [3]: 3
Elevated alkaline phosphatase: patients with drug-related AE [3]: 2
Epistasis: patients with drug-related AE [3]: 3
Headache: patients with drug-related AE [3]: 0
Hot flush: patients with drug-related AE [3]: 1
Mucosal inflammation: patients with drug-related AE [3]: 2
Muscle spasm: patients with drug-related AE [3]: 2
Nausea: patients with drug-related AE [3]: 5
Neuropathy: patients with drug-related AE [3]: 1
Pyrexia: patients with drug-related AE [3]: 1
Rash: patients with drug-related AE [3]: 2
Upper abdominal pain: patients with drug-related AE [3]: 3
Vomiting: patients with drug-related AE [3]: 3
Weight decrease: patients with drug-related AE [3]: 1
Patients with CTCAE grade 3/4 liver enzyme (transaminase) elevations, of twelve (250 mg BID, any TC, based on laboratory values): six
Patients with CTCAE grade 3/4 increases in hepatic enzymes (250 mg BID, entire treatment period): 50%
Ageusia: patients with drug-related AE [4]: 0
Alopecia: patients with drug-related AE [4]: 0
Anorexia: patients with drug-related AE [4]: 0
Asthenia: patients with drug-related AE [4]: 0
Constipation: patients with drug-related AE [4]: 0
Diarrhoea: patients with drug-related AE [4]: 2
Dysgeusia: patients with drug-related AE [4]: 0
Dyspepsia: patients with drug-related AE [4]: 0
Dysphonia: patients with drug-related AE [4]: 0
Elevated ALT: patients with drug-related AE [4]: 2
Elevated AST: patients with drug-related AE [4]: 2
Elevated GGT: patients with drug-related AE [4]: 2
Elevated alkaline phosphatase: patients with drug-related AE [4]: 0
Epistasis: patients with drug-related AE [4]: 0
Headache: patients with drug-related AE [4]: 0
Hot flush: patients with drug-related AE [4]: 0
Mucosal inflammation: patients with drug-related AE [4]: 0
Muscle spasm: patients with drug-related AE [4]: 0
Nausea: patients with drug-related AE [4]: 0
Neuropathy: patients with drug-related AE [4]: 0
Pyrexia: patients with drug-related AE [4]: 0
Rash: patients with drug-related AE [4]: 0
Upper abdominal pain: patients with drug-related AE [4]: 0
Vomiting: patients with drug-related AE [4]: 0
Weight decrease: patients with drug-related AE [4]: 0
Ageusia: patients with drug-related AE [5]: 2
Alopecia: patients with drug-related AE [5]: 4
Anorexia: patients with drug-related AE [5]: 6
Asthenia: patients with drug-related AE [5]: 14
Constipation: patients with drug-related AE [5]: 3
Diarrhoea: patients with drug-related AE [5]: 13
Dysgeusia: patients with drug-related AE [5]: 3
Dyspepsia: patients with drug-related AE [5]: 2
Dysphonia: patients with drug-related AE [5]: 4
Elevated ALT: patients with drug-related AE [5]: 4
Elevated AST: patients with drug-related AE [5]: 3
Elevated GGT: patients with drug-related AE [5]: 3
Elevated alkaline phosphatase: patients with drug-related AE [5]: 2
Epistasis: patients with drug-related AE [5]: 5
Headache: patients with drug-related AE [5]: 2
Hot flush: patients with drug-related AE [5]: 2
Mucosal inflammation: patients with drug-related AE [5]: 2
Muscle spasm: patients with drug-related AE [5]: 2
Nausea: patients with drug-related AE [5]: 9
Neuropathy: patients with drug-related AE [5]: 2
Pyrexia: patients with drug-related AE [5]: 2
Rash: patients with drug-related AE [5]: 2
Upper abdominal pain: patients with drug-related AE [5]: 4
Vomiting: patients with drug-related AE [5]: 5
Weight decrease: patients with drug-related AE [5]: 2
Alopecia, frequency of AE irrespective of relatedness (all TCs and doses): 23.8%
Asthenia, frequency of AE irrespective of relatedness (all TCs and doses): 95.2%
Diarrhoea, frequency of AE irrespective of relatedness (all TCs and doses): 85.7%
Nausea, frequency of AE irrespective of relatedness (all TCs and doses): 28.6%
Alopecia, frequency of drug-related AE [6]: 23.8%
Asthenia, frequency of drug-related AE [6]: 61.9%
Nausea, frequency of drug-related AE [6]: 28.6%
Vomiting, frequency of drug-related AE [6]: 28.6%
Patients with AE severity grade 1 [7]: 28.6%
Patients with AE severity grade 2 [7]: 28.6%
Patients with AE severity grade 3 [7]: 23.8%
Patients with AE severity grade 4 (neutropenia only, considered related to docetaxel) [7]: 14.3%
